Series [1] concerns Mycobacterium tuberculosis. As to the kind of experiment: Antimycobacterial activity against Mycobacterium tuberculosis H37Rv measured after 7 days by MABA assay. In kind it is functional. Conditions: 168 h, time 7 day. For orientation: The colour change of resazurin is a common sign of viable cells or microbes.
For series [2], the target named is T1, Amine oxidase [flavin-containing] A (Homo sapiens, UniProt P21397).
T1 sequence (P21397 whole entry): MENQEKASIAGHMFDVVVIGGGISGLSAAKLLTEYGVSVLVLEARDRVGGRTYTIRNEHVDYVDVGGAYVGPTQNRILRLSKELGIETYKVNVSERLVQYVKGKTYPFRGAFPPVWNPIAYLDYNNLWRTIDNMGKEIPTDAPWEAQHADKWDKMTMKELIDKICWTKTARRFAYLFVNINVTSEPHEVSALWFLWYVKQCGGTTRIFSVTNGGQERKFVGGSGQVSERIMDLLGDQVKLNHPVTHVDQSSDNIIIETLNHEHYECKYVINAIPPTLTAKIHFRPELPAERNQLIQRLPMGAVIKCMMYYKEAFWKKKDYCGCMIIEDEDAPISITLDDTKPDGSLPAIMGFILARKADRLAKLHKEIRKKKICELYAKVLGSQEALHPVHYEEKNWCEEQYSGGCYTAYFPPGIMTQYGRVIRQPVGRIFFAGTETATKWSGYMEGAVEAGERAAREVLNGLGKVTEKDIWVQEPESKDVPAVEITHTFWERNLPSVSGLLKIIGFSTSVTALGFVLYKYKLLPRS
As to the kind of experiment: Inhibition of recombinant human MAO-A using kynuramine as substrate incubated for 15 mins by absorbance based assay.

The target in series [3] is T2, Amine oxidase [flavin-containing] B (Homo sapiens, UniProt P27338).
T2 sequence (P27338 whole entry): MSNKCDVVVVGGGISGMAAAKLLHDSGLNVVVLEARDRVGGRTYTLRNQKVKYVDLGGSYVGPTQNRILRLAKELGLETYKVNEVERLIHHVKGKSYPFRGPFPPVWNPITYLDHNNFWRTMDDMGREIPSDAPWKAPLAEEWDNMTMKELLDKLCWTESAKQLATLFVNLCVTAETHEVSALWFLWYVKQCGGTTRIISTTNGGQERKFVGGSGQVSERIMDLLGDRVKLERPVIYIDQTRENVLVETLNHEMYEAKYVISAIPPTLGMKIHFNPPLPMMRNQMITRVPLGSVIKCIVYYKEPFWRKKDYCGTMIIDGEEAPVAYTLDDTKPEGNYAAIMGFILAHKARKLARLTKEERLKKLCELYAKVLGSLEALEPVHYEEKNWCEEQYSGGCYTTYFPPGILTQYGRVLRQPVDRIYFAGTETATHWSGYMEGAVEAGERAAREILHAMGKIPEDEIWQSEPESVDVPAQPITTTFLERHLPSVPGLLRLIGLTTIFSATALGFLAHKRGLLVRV

The nature of series [4]: Cytotoxicity against human THP-1 cells incubated for 3 days by Cell Titer-Glo Luminescent Cell Viability Assay. It is filed as toxicity, cell-based.
For series [5], the target named is T2, Amine oxidase [flavin-containing] B. Description: Reversible competitive inhibition of human MAO-B assessed as residual activity before dialysis at 0.068 uM incubated for 30 mins relative to control. Conditions: 0.5 h, read-out: Activity.
Series [6] has the same target. As to the kind of experiment: Potency index, ratio of Pargyline IC50 to test compound IC50 for inhibition of recombinant human MAO-B using benzylamine as substrate incubated for 15 mins by absorbance based assay. Particulars: 0.25 h.
Series [7] has the same target. Description: Reversible competitive inhibition of human MAO-B assessed as residual activity after dialysis at 0.068 uM incubated for 30 mins relative to control. Particulars: 0.5 h, read-out: Activity.
Series [8] has the same target. As to the kind of experiment: Potency index, ratio of Clorgyline IC50 to test compound IC50 for inhibition of recombinant human MAO-B using benzylamine as substrate incubated for 15 mins by absorbance based assay. Particulars: 0.25 h.
For series [9] the target is unchanged. Conditions: 0.5 h.

As a reminder, the MIC is the least concentration at which growth counts as inhibited. A lower MIC goes with inhibition by little substance. A word on the IC50: it is the concentration needed to halve the response being measured. The compound `CCCCS(=O)(=O)Nc1nnc(-c2ccc(N3CCSCC3)c(F)c2)s1` had an MIC in [1] above 25 µg/mL. Moreover, the IC50 in series [2] is 21500 nM; in series [3], 50 nM.
`O=C(Nc1nnc(-c2ccc(N3CCSCC3)c(F)c2)s1)C1CC1` had an MIC in series [1] above 25 µg/mL. The IC50 in series [2] is above 40000 nM; in [3] it was 100 nM.
Taken in the same sequence, the figures for `CS(=O)(=O)Nc1nnc(-c2ccc(N3CCSCC3)c(F)c2)s1` were above 25 µg/mL, 18400 nM and 40 nM.
In turn, `CC(=O)Nc1nnc(-c2ccc(N3CCSCC3)c(F)c2)s1` had an MIC in series [1] above 25 µg/mL. Besides, the IC50 in [2] was determined as 8960 nM; in [3] it was 70 nM. In series [4], this compound returned an IC50 at 3 days above 300 µg/mL.
The compound `CC(=O)Nc1nnc(-c2ccc(N3CCCC3)c(F)c2)s1` registered an MIC in [1] above 25 µg/mL. Moreover, the IC50 in series [2] was found to be 13200 nM; in series [3], 170 nM.
Taken in the same sequence, the figures for `O=S(=O)(Nc1nnc(-c2ccc(N3CCSCC3)c(F)c2)s1)C1CC1` were above 25 µg/mL, 26000 nM and 50 nM.
In series [1], `CCS(=O)(=O)Nc1nnc(-c2ccc(N3CCSCC3)c(F)c2)s1` yielded an MIC above 25 µg/mL. The activity at 0.068 µM in series [5] worked out at 35%; in series [7], 73.5%. For the same compound, the IC50 in [2] amounted to 15800 nM; in series [3], 30 nM. The “Ratio IC50” value turned out to be 4 in series [6] and 54 in series [8]. This compound showed an IC50 at 3 days in series [4] above 300 µg/mL.
`CC(=O)Nc1nnc(-c2ccc(N3CCOCC3)c(F)c2)s1` came in with an MIC in [1] above 25 µg/mL. Further, the IC50 in series [2] is above 40000 nM; in series [3], 1020 nM.
For the compound `C#CCN(C)Cc1ccccc1` [PARGYLINE], the activity at 0.028 µM in series [9] stood at 34%.

Values taken from ChEMBL document CHEMBL6121031, “Optimizing Linezolid: Transforming It into a Selective MAO-B Inhibitor via a Toxicity-to-Activity Optimization Approach” (ACS Med Chem Lett, 2025).
